Results on five compounds are retold here after publication PMC5850045 (ERJ Open Research, 2018).

The term Ki denotes a measure of affinity in units of concentration, obtained from inhibition or displacement. A high value points to a looser hold on the target. By pKi is commonly meant the negative decadic logarithm of the Ki, by convention in mol/L. A high value points to a low Ki.

In one test the test system is rat colon. Description: Ex vivo rat colon force contraction experiment. Conditions: for contractile response in the colon: colon pre-treated with β3 receptor selective antagonist SR59230A; for effects on colonic contractions: ex vivo rat colon preparation.
Test [1] addresses T1, serotonin transporter (Homo sapiens, UniProt P31645). Description: Primary radioligand binding screen. The note with it: 10 µM, n = 4.
In test [2] the target is T2, α1A-adrenergic receptor (Homo sapiens, UniProt P35348).
T2 sequence (P35348 1-466): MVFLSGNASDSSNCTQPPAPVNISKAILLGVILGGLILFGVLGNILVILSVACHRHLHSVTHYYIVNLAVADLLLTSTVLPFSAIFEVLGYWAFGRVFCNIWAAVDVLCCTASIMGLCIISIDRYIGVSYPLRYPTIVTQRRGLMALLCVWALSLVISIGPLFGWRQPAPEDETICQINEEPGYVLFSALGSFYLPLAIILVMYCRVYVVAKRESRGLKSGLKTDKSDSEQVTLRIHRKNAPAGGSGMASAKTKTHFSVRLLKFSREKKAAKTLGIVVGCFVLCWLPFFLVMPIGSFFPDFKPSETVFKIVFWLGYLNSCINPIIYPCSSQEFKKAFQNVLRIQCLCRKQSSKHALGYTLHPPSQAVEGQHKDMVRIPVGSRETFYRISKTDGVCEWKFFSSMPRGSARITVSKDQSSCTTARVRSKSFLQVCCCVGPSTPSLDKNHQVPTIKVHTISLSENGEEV
Description: Primary radioligand binding screen. Conditions: 10 µM, n = 4.

Test [3] concerns the target T1, serotonin transporter. Description: Secondary radioligand binding assay. Conditions: low-affinity binding.
The target in test [4] is T2, α1A-adrenergic receptor. Description: Secondary radioligand binding assay.
The target in the next test is T3, α1B-adrenergic receptor (Homo sapiens, UniProt P35368).
T3 sequence (P35368 1-520): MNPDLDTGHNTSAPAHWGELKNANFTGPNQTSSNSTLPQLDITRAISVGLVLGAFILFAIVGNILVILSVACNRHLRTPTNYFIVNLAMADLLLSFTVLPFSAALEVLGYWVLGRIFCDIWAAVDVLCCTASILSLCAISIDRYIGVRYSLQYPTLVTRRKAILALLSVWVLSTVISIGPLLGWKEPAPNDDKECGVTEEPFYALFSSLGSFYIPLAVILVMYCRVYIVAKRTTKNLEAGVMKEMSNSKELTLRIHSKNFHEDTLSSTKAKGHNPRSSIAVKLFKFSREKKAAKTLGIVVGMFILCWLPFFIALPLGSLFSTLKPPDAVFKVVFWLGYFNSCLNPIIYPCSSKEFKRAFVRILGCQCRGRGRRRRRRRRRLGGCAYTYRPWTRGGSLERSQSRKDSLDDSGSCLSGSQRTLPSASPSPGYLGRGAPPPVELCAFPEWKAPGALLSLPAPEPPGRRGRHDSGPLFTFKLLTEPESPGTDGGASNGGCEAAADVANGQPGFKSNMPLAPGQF
Description: Secondary radioligand binding assay.

In another test the target is histamine H1 receptor (Homo sapiens, UniProt P35367). Description: Primary radioligand binding screen. Conditions: 10 µM, n = 4.
The next test has as its target T4, α1D-adrenergic receptor (Homo sapiens, UniProt P25100).
T4 sequence (P25100 1-572): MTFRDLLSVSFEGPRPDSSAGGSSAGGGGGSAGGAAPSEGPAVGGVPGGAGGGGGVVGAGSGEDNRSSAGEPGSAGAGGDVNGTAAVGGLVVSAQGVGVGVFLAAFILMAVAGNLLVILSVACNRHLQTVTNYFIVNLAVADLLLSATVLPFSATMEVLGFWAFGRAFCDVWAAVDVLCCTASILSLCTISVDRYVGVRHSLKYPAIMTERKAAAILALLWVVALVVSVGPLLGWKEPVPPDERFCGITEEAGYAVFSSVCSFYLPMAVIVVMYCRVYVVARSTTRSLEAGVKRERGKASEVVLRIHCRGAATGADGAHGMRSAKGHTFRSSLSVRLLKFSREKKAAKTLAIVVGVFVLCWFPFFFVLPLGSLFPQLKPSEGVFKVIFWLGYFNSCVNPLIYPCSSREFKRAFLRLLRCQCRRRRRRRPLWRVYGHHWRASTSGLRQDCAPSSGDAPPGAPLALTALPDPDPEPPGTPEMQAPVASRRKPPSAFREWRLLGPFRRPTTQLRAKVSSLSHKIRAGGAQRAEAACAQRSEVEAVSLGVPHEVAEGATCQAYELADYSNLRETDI
Description: Secondary radioligand binding assay.

The target in test [5] is T5, β3-adrenergic receptor (Homo sapiens, UniProt P13945). Description: Secondary radioligand binding assay.
Test [6] deals with T6, 5-HT2C receptor (Homo sapiens, UniProt P28335).
T6 sequence (P28335 33-458): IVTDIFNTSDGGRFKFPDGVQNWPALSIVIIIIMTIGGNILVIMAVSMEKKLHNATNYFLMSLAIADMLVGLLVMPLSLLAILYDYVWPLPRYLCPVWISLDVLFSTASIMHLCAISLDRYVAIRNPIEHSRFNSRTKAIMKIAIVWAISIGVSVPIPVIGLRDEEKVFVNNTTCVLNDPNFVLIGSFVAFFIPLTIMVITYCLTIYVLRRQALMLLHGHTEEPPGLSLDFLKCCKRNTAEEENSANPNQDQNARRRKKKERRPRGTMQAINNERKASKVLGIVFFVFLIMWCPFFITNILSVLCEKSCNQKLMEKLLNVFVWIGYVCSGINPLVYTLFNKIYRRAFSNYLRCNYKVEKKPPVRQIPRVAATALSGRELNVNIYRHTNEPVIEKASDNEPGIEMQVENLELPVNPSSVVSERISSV
Description: Secondary radioligand binding assay.

The target of test [7] is T5, β3-adrenergic receptor. Description: Primary radioligand binding screen. Conditions: 10 µM, n = 4.
In test [8] the target is T7, δ-opioid receptor (Homo sapiens, UniProt P41143). Description: Secondary radioligand binding assay.
Test [9] addresses T6, 5-HT2C receptor. Description: Primary radioligand binding screen. The note with it: 10 µM, n = 4.
In test [10] the target is T7, δ-opioid receptor. Description: Primary radioligand binding screen. Conditions: 10 µM, n = 4.
The next test has as its target dopamine transporter (Homo sapiens, UniProt Q01959). Description: Primary radioligand binding screen. The note with it: 10 µM, n = 4.
A further test has as its target muscarinic M3 receptor (Homo sapiens, UniProt P20309). Type of test: binding.

Molecules are shown by their SMILES. Like-named read-outs stand apart in the source and are kept apart here.

T1 sequence (P31645 whole entry): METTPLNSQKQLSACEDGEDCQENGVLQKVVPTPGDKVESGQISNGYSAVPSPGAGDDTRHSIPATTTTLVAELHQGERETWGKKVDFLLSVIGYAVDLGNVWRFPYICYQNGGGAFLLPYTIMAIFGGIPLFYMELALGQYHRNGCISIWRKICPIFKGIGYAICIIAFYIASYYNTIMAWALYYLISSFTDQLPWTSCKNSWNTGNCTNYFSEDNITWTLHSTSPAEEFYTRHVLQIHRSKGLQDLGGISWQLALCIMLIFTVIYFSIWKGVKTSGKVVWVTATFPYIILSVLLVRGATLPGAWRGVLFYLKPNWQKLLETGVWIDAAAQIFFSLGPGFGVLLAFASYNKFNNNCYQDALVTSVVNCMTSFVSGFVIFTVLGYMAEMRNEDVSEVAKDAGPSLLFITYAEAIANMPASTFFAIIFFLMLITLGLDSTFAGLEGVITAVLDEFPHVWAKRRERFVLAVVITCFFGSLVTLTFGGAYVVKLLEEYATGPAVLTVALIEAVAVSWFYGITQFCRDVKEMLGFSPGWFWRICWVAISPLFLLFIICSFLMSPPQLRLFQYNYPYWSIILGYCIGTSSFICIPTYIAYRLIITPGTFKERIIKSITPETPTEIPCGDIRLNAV
T5 sequence (P13945 whole entry, species assumed): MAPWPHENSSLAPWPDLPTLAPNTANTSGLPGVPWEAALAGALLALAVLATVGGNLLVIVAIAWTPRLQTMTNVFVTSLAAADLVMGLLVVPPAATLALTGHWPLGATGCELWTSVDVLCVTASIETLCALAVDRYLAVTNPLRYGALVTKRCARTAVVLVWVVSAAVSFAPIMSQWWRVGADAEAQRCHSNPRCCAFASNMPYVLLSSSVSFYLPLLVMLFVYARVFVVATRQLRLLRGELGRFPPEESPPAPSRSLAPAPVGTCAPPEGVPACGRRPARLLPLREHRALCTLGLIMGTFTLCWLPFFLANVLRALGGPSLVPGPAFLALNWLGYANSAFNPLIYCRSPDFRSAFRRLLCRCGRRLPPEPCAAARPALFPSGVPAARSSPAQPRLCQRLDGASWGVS
Chain of muscarinic M3 receptor (P20309 whole entry): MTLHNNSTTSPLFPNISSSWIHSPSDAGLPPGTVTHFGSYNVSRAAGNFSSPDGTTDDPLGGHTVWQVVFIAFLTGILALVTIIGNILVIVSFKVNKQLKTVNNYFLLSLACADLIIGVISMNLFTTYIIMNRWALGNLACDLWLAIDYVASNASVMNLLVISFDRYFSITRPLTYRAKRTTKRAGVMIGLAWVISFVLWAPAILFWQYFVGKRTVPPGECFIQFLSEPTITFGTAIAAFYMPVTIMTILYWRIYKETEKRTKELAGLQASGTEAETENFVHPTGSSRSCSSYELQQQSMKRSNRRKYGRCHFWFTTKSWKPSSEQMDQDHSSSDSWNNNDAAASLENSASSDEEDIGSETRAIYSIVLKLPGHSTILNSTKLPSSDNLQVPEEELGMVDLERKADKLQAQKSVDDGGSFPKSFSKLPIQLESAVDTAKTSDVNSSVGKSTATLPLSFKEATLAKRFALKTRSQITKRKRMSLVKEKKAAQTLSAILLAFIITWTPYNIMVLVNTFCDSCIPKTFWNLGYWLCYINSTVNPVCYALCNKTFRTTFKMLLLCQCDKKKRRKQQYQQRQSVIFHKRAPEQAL
Chain of histamine H1 receptor (P35367 whole entry, species assumed): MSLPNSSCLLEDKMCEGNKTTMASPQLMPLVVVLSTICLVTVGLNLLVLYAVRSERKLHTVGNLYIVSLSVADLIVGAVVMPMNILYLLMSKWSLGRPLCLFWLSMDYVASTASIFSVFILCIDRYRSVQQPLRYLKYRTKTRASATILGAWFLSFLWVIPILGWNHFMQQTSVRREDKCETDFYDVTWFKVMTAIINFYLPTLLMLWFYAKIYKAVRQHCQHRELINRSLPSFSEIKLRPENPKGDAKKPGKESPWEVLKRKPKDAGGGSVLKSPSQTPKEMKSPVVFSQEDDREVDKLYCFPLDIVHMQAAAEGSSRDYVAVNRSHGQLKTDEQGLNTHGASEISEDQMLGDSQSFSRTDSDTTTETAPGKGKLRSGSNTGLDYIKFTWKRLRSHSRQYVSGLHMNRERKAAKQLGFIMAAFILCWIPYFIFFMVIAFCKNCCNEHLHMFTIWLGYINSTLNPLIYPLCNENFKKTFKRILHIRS
T7 sequence (P41143 whole entry): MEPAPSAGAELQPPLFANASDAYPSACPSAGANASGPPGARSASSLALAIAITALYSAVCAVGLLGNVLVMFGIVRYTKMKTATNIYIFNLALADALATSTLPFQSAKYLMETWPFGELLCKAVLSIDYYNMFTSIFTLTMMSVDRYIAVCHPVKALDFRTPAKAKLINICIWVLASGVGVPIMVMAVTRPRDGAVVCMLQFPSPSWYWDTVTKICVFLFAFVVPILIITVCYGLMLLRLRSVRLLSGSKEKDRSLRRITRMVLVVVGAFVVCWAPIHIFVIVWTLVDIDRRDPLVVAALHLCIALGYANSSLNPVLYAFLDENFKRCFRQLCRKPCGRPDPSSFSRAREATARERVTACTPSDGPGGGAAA
Chain of dopamine transporter (Q01959 whole entry): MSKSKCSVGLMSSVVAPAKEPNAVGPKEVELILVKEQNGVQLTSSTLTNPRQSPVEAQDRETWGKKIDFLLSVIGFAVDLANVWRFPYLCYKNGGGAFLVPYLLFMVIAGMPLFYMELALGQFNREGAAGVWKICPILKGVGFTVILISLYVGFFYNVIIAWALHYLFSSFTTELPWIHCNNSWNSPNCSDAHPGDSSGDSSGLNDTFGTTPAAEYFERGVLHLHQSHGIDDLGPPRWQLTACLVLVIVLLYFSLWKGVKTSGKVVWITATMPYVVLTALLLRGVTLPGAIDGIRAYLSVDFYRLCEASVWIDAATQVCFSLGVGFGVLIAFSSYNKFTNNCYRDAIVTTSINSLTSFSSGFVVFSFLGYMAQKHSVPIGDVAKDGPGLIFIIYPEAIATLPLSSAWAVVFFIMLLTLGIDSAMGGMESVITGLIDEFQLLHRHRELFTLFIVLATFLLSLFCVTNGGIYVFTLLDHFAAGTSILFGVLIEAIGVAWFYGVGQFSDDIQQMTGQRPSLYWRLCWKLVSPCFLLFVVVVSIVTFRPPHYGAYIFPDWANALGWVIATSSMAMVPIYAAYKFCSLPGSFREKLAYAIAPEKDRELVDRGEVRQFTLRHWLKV

For the compound `CC(C)(C)c1cc(C(C)(C)C(=O)O)c(O)cc1NC(=O)c1c[nH]c2ccccc2c1=O` [iva-M6, ivacaftorcarboxylate], the “contractile response in the colon” value with rat colon is reported as “significant contractile response”. Besides, the “effects on colonic contractions” value with rat colon is recorded as “no significant effects”. The figures for the “% displacement” value on serotonin transporter [1] and at α1A-adrenergic receptor [2] were 50.9% and 92.3%, respectively. Moreover, the Ki on serotonin transporter [3] and at α1A-adrenergic receptor [4] (low-affinity binding) was > 10 µM throughout.

With `Cc1ccc(NC(=O)C2(c3ccc4c(c3)OC(F)(F)O4)CC2)nc1-c1cccc(C(=O)O)c1` [lumacaftor], the Ki at α1B-adrenergic receptor is > 10 µM; at α1D-adrenergic receptor it was 4.84 µM. Moreover, at histamine H1 receptor, the “% displacement” value was 71.2%.

Turning to `CC(C)(C)c1cc(C(C)(C)C)c(NC(=O)c2c[nH]c3ccccc3c2=O)cc1O` [ivacaftor], the Ki is 1.93 µM on β3-adrenergic receptor [5]; 0.866 µM on 5-HT2C receptor [6]; 2.59 µM at δ-opioid receptor [8]; > 10 µM at serotonin transporter [3] (Ki); > 10 µM at α1A-adrenergic receptor [4]. Moreover, the “contractile response in the colon” value in the test with rat colon is listed as “significant contractile response”. Besides, the “effects on colonic contractions” value with rat colon is given as “no significant effects”. Further, the “% displacement” value on β3-adrenergic receptor [7] was 75.9%; at 5-HT2C receptor [9] it was 84.8%; at δ-opioid receptor [10], 50.8%; on serotonin transporter [1] it was 61.1%; at α1A-adrenergic receptor [2] it was 58.3%; on dopamine transporter, 55.2%.

On to `CC(C)(C)c1cc(C(C)(C)CO)c(O)cc1NC(=O)c1c[nH]c2ccccc2c1=O` [iva-M1, hydroxymethylivacaftor], for which the entries for the “% displacement” value on 5-HT2C receptor [9], at serotonin transporter [1] and at α1A-adrenergic receptor [2] were 78.2%, 56.7% and 79.9%, respectively. The values for the Ki at serotonin transporter [3], on α1A-adrenergic receptor [4] (low-affinity binding) and on muscarinic M3 receptor were > 10 µM, > 10 µM and 1.83 µM, respectively. The compound also registered a pKi at muscarinic M3 receptor of 5.70±0.10.

In the case of `CC(C)(CO)c1cc2cc(NC(=O)C3(c4ccc5c(c4)OC(F)(F)O5)CC3)c(F)cc2n1C[C@@H](O)CO` [tezacaftor], on histamine H1 receptor, the “% displacement” value amounted to 53.3%. Moreover, at α1D-adrenergic receptor, the Ki stood at 5.45 µM.
